Measured values taken from ChEMBL document CHEMBL5338777, “Small-Molecule Modulators Targeting Toll-like Receptors for Potential Anticancer Therapeutics” (J Med Chem, 2023).
pEC50, pIC50, pKd: −log10 of the molar value. Each block holds one molecule with its values, some of them ahead of it.

How the values were obtained:
[1] = molecular target: T1, Toll-like receptor 1/2 (Homo sapiens, UniProt O60603+Q15399); test: Antagonist activity at human TLR1/TLR2; format: protein-complex assay
[2] = molecular target: T2, TLR2/TLR6 (Homo sapiens, UniProt O60603+Q9Y2C9); test: Antagonist activity at human TLR2/TLR6; format: protein-complex assay
[3] = molecular target: T1, Toll-like receptor 1/2; test: Antagonist activity at TLR1/TLR2 in HEK-Blue hTLR2 cells; format: cell-based
[4] = molecular target: T2, TLR2/TLR6; test: Antagonist activity at TLR2/TLR6 in human THP-1 cells; format: cell-based
[5] = molecular target: T3, Toll-like receptor 7 (Homo sapiens, UniProt Q9NYK1)
T3 sequence (Q9NYK1 whole entry): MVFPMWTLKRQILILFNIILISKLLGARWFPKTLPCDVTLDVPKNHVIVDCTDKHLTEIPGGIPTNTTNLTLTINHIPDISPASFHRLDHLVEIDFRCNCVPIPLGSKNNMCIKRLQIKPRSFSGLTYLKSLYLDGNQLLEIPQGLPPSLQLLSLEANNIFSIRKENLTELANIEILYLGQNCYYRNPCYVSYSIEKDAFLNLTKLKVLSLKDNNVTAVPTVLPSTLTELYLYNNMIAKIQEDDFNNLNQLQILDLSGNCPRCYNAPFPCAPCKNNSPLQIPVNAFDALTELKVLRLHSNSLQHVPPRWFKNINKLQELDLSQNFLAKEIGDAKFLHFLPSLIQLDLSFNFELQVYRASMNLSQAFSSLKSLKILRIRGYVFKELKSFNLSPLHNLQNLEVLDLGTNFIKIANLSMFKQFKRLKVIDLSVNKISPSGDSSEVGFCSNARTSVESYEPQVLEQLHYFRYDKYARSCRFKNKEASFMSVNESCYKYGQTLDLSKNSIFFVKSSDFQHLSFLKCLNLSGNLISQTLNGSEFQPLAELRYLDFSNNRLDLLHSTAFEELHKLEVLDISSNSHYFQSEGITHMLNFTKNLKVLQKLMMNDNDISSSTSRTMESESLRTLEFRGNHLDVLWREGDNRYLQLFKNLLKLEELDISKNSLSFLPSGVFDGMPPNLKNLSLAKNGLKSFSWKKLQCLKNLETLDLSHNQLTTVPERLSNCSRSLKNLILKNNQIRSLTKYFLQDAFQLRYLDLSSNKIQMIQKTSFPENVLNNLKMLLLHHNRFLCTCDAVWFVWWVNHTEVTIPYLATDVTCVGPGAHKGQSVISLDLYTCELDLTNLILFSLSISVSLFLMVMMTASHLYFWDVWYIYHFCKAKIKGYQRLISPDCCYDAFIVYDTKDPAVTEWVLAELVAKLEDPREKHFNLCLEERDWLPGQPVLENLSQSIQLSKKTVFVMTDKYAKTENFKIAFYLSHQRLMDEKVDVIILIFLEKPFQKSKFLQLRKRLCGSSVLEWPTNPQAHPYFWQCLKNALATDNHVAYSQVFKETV
Description: (§1) Agonist activity at TLR7 (unknown origin)

[6] = molecular target: T1, Toll-like receptor 1/2; test: Antagonist activity at TLR1/TLR2 (unknown origin); format: protein-complex assay
[7] = molecular target: T4, Toll-like receptor 3 (Homo sapiens, UniProt O15455); test: Antagonist activity at TLR3 (unknown origin)
T4 sequence (O15455 whole entry): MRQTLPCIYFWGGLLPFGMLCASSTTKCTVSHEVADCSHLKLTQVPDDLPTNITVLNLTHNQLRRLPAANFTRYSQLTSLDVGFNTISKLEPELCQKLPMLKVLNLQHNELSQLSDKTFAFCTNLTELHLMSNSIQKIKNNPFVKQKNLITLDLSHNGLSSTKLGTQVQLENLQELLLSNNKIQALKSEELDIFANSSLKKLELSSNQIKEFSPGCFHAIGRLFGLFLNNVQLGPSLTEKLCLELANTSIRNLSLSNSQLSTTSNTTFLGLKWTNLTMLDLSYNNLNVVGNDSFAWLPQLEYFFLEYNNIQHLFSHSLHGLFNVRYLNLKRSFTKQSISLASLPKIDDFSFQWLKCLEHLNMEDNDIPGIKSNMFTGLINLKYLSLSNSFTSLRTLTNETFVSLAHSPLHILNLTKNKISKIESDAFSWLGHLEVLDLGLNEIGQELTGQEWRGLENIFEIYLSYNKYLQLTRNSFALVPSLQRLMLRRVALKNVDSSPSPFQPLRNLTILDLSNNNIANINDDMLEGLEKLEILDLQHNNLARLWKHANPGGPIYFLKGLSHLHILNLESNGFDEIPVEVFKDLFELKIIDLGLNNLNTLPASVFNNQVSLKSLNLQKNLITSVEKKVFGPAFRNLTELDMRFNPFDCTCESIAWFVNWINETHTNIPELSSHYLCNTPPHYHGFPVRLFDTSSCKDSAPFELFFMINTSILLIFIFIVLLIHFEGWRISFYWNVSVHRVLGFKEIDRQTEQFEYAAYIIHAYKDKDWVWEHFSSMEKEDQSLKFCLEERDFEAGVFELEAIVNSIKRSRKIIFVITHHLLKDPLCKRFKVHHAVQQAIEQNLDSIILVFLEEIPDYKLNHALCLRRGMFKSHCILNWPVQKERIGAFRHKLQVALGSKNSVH

[8] = molecular target: T5, Toll-like receptor 8 (Homo sapiens, UniProt Q9NR97); test: Binding affinity to human TLR8 expressed in HEK-Blue hTLR8 cells; format: cell-based
T5 sequence (Q9NR97 whole entry): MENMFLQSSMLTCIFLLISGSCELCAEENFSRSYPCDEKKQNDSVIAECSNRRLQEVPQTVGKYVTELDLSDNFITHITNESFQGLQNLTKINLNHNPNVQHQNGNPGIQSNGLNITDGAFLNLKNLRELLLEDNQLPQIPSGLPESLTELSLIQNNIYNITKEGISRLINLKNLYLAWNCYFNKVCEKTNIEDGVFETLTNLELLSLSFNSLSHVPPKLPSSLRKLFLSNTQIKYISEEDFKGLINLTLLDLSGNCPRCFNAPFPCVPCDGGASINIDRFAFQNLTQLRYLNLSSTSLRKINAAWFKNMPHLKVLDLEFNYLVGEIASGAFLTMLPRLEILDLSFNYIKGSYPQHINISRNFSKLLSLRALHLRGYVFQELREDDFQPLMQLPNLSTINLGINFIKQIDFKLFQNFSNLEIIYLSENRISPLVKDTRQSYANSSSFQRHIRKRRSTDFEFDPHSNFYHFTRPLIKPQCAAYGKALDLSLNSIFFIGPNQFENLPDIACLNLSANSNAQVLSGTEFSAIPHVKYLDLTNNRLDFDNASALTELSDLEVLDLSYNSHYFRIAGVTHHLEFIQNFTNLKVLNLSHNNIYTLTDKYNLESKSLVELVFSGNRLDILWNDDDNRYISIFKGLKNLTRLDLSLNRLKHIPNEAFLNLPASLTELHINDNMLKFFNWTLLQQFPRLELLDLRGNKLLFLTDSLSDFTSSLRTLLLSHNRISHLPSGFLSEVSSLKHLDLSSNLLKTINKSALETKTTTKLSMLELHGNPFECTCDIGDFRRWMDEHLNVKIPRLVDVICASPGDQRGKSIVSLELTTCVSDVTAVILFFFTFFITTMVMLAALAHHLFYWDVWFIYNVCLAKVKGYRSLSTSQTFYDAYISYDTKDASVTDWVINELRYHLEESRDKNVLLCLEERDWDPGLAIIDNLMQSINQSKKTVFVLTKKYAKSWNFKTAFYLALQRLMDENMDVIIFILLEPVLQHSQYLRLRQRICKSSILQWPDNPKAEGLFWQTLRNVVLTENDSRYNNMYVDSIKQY

[9] = molecular target: T1, Toll-like receptor 1/2
Description: Agonist activity at TLR1/TLR2 in human THP-1 cells

[10] = molecular target: T5, Toll-like receptor 8; test: Antagonist activity at human TLR8
[11] = molecular target: T5, Toll-like receptor 8
Description: Agonist activity at TLR8 (unknown origin)

[12] = molecular target: T3, Toll-like receptor 7; remark: listed apart in the source
Description: as §1

T1 sequence (O60603 whole entry): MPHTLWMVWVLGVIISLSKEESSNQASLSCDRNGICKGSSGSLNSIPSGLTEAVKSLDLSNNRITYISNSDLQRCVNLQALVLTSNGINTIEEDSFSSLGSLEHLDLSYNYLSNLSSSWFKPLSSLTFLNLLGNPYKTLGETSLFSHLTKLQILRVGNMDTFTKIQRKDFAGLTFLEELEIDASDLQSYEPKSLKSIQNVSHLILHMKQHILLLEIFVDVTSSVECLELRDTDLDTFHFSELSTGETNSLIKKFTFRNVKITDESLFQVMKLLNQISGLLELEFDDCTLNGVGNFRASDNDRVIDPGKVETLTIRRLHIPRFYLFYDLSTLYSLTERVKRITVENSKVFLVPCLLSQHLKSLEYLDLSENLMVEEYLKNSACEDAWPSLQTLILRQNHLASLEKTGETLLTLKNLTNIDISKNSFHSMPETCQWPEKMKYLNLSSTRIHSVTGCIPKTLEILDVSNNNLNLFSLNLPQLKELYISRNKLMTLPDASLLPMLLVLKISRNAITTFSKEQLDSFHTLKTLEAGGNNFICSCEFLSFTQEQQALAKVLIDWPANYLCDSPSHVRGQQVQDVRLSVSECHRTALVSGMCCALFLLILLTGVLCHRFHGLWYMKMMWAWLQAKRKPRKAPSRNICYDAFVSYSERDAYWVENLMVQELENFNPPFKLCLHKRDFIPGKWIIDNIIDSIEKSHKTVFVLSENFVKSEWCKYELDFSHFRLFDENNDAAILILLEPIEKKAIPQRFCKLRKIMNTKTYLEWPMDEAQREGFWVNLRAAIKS
T1 sequence (Q15399 whole entry): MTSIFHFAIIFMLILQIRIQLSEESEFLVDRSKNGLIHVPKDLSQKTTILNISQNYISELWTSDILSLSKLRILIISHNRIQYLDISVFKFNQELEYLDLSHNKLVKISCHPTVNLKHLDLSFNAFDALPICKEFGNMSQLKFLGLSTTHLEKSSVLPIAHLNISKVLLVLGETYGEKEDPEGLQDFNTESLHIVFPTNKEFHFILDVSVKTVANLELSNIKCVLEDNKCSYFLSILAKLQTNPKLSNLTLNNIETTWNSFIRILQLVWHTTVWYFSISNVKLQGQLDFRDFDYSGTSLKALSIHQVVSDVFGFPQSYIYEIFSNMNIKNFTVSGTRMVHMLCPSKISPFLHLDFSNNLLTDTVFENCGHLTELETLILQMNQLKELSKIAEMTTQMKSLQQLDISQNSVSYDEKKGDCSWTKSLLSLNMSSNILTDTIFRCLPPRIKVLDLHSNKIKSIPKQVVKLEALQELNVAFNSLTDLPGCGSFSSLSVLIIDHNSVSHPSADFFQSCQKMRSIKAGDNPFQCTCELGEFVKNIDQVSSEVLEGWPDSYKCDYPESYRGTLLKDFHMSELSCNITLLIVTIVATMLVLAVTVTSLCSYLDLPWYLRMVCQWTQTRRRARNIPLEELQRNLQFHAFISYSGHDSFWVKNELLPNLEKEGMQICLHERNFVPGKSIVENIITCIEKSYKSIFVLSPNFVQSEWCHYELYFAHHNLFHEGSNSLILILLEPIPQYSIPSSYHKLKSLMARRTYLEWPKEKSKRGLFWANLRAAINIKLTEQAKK
T2 sequence (O60603 whole entry): as the sequence (O60603 whole entry) above
T2 sequence (Q9Y2C9 whole entry): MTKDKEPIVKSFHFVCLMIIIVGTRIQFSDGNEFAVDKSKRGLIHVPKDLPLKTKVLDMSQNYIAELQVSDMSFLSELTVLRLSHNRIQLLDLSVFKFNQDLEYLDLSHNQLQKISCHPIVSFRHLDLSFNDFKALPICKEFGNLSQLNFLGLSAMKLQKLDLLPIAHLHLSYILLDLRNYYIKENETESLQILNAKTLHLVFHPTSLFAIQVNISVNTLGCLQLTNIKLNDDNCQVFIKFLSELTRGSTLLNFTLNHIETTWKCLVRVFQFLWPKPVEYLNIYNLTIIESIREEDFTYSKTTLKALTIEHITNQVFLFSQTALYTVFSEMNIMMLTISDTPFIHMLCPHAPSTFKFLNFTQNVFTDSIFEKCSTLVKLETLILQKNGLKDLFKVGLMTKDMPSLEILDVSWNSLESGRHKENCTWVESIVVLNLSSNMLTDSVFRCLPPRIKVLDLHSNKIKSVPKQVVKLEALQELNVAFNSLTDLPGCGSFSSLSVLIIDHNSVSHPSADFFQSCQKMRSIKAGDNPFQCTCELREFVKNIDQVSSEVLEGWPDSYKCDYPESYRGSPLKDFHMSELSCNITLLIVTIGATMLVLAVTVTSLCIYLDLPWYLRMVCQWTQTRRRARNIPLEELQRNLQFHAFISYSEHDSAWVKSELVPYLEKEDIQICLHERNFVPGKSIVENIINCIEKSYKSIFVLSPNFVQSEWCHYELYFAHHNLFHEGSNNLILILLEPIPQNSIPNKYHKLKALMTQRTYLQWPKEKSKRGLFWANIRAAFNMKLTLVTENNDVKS

SMILES: CCOC(=O)c1ccc(CC(=O)c2ccc(O)c(O)c2O)o1
pIC50 [1]: 5.77
pIC50 [2]: 5.24

SMILES: COc1cccc(C=O)c1O
pIC50 [3]: 4.62
pIC50 [4]: 4.43

SMILES: CCCCCCOC(=O)c1cc(O)c(=O)c2c(O)c(O)c(OC)cc2c1
pIC50 [6]: 6.24
pIC50 [1]: 5.04
pIC50 [2]: 5.25

SMILES: Cc1cccc(-c2ccnc3c(C(N)=O)cnn23)c1
pKd [8]: 6.66

SMILES: CCOC(=O)c1c(NC(=O)N2CCN(C)CC2)sc2c1CCC2
pEC50 [9]: 6.26

SMILES: O=C(N[C@H](Cc1ccccc1)C(=O)O)c1cc2c(s1)CCCCC2
pIC50 [7]: 3.81

Results, then the molecule that gave them:

pEC50 [5]: 6.85
SMILES: COCCOc1nc(N)c2[nH]c(=O)n(Cc3ccccc3)c2n1

pIC50 [3]: 4.71
pIC50 [4]: 4.42
SMILES: COc1cccc(/C=N/c2cccc(C(=O)O)c2C)c1O

pIC50 [7]: 5.46
SMILES: O=C(N[C@H](Cc1ccccc1)C(=O)O)c1sc2cc(F)ccc2c1Cl

pIC50 [10]: 9.10
SMILES: COc1ccc2c(-c3cnc(OCc4ccccc4)c(C)c3)ccnc2c1

pIC50 [10]: 10.00
SMILES: COc1ccc2c(-c3ccc(OCCCCO)c(C)c3)ccnc2c1

pEC50 [11]: 7.25
pEC50 [12]: 6.72
SMILES: CCCCn1cc2c(n1)c(N)nc1ccccc12
